Source: publication PMC12320299 (Chemical Science, 2025)

Key:
[1] = tested on: SW480 colon carcinoma cell line; test: MTT viability assay, SW480, 24 h; assay type: cell-based, human; settings: for IC50: 24 h incubation; for potency compared to morpholine-analogues 1b and 2b: SW480, 24 h
Method: cultured in adherent T75 flasks (Sarstedt) in a humidified incubator at 37 °C and 5% CO2 (HeraCell150i, Thermo Fisher Scientific) and subcultured three times a week as the cells reached 75–80% growth area occupied. […]
Trypsin/EDTA solution (0.25%, Sigma-Aldrich) was used for detachment of all […]
SW480 human colon carcinoma cells (4.000 cells/well for the ethyl complexes; 4.000 and 10.000 cells/well for the morpholino complexes) were seeded in flat-bottom 96-well plates (Corning) and incubated at 37 °C for 24 h in a humidified incubator at 5% CO2 (HeraCell150i, Thermo Fisher Scientific). Stock solutions of the compounds were freshly prepared in DMSO […]
10 µM in complete cell culture medium for the ethyl compounds and 5, 10, 20, 40, 60, 80, 120, 160 µM for the morpholino compounds (final concentration of DMSO ≤0.4% v/v). The cells were incubated with the compounds for 24 h and 72 h. Then, the cell metabolism was colorimetrically determined using 3-(4,5-dimethylthiazol-2-yl)-2,5-diphenyl tetrazolium bromide (MTT). For this purpose, MTT reagent (20 µL, 5 mg mL-1 in phosphate-buffered saline, PBS) was added to each well and further incubated for 4 h. The medium was gently […]
removed and 100 µL DMSO was added to dissolve the formazan crystals. Photometric quantification was performed at 570 nm with a Multiskan Go 1510 photometer (Thermo Fisher […]
The absorbances were blank corrected and converted to relative proliferation. The IC50 values (concentration of 50% growth inhibition) were obtained using a sigmoidal fit of the experimental data and calculated as the mean ± standard deviation of at least three independent experiments, each in at least triplicates. […]
(each 3.000 cells/well) were seeded in 100 µL/well into flat-bottom 96-well plates (Starlab) and incubated at 37 °C for 24 h in a humidified incubator (Binder CB210) at 5% CO2. Complex 1a, bafilomycin or bortezomib were dissolved in DMSO and diluted in appropriate cell culture medium to respective concentrations. After 24 h of treatment, plates were measured by MTT assay as described above.
Colon carcinoma cells (SW480) were seeded into 12-well plates (CytoOne, Starlab) in densities of 1×10^5 cells per well (in 1 mL complete medium). After 24 h, cells were treated with […]

CT26 colon carcinoma = test: Anti-tumour activity in subcutaneous CT26 allografts; assay type: in vivo, BALB/c mice; settings: for tumour growth compared to vehicle-treated controls: i.p. over two weeks, 10 mg kg^−1 (1a, 2a), 30 mg kg^−1 (1b, 2b)
Method: Tumour inhibition of the four compounds was evaluated in subcutaneous CT26 allografts using BALB/c mice, since it represents an appropriate immune competent mouse model to study colon carcinoma. The compounds were administered intraperitoneally (i.p.) over two weeks at doses of 10 mg kg^−1 for the 3-Et-NQ complexes and 30 mg kg^−1 for the 3-Morph-NQ complexes. The different dosages were selected as maximal tolerable doses (MTDs) after an initial toxicity screen (data not shown).
Animals. All experiments were carried out with male Balb/c mice according to the regulation of the Ethics Committee for the Care and Use of Laboratory Animals at the Medical University Vienna (BMWF-2022-0.770.291), the guidelines from the Austrian Animal Science Association and the Federation of European Laboratory Animal Science Associations (FELASA). The animals were kept in a pathogen-free conditions, controlled environment with 12 h light–dark cycle with ad libitum access to food and water. Every procedure was done in a laminar airflow […]
Treatment. CT-26 cells ([…] in 50 μL serum-free medium) were injected subcutaneously (s.c.) into the right flank of ten– to eleven-week-old male Balb/c mice. Three days after cell injection, all compounds (dissolved in 10% DMSO in water) were administered […]
1b/2b. Regarding anticancer activity experiments, mice were treated on 5 consecutive days […]
over 2 weeks. […]

[2] = Solubility in phosphate buffered saline; assay type: physicochemical; settings: PBS with 1% DMSO
Text: Fig. 2 (A) Chemical structures of the investigated naphthoquinone-based metal(arenes) in this study.

[3] = Reactivity with mixture of small biological nucleophiles by ESI-MS; assay type: physicochemical; settings: for reaction with nucleophile mixture within 24 h: 50 μM; for Intact compound after 24 h, nucleophile mixture: equimolar Cys/Met/His/ATP/GTP, each 50 μM, ESI-MS
Method: Then, the compounds were analogously incubated with an equimolar mixture of cysteine, methionine, histidine, adenosine triphosphate and guanosine triphosphate to verify coordination preferences for amino acids over nucleotides. The reactivity of the four compounds was qualitatively similar, characterized by release of the NQ ligands and formation of mainly methionine and histidine-adducts with the metal(arene) (ESI, Fig. S13 ^†). No metalation of the nucleotides was observed. In contrast to other O,O-ligand systems, which are typically deactivated within minutes by ligand release under such conditions,[51,52] the N,O,O-tridentate organometallics studied here were characterized by increased stability. […] Again, the 3-Morph-NQ ligand was detected upon release from the metal centre, but hydrolysis dimers were not observed in the presence of bionucleophiles (ESI, Fig. S13 ^†). The reactivity of the compounds towards an equimolar concentration of the model protein ubiquitin was characterized by similar kinetic behaviours and reactivity (ESI, Fig. S14 ^†). […]
aliquot was used for stability testing of the respective test substance in aqueous solution. […]
2b were equimolarly added (50 µM) to a mixture of three amino acids and two nucleotides (Cys/Met/His/ATP/GTP; each 50 µM in aqueous solution) to test the interaction with small biological nucleophiles. All samples were mixed and incubated in a shaking incubator at 37 °C with speed set to 1000 rpm in the dark (Eppendorf ThermoMixer® C). After 1.5 h, 24 h and 72 h, 300 µL per sample were transferred to fresh reaction vessels, immediately frozen in liquid N2 and stored at –20 °C until measurement.
Samples were diluted to a concentration of 2.5 µM with an organic eluent (49.5% v/v acetonitrile, 49.5% v/v methanol,1% v/v H2O), except ubiquitin containing samples which were diluted to the same concentration with acidified H2O (0.1% v/v formic acid). The samples were then analysed by flow-injection using an amazon speed ETD ion trap (Bruker Daltonics) in the positive ion mode over 0.4 min using the following experimental parameters: HV capillary ±4.5 kV, end plate offset –500 V, dry temp 180 °C, nebulizer 3 bar, dry gas 5 L min-1, scan range m/z 200–1400, target mass m/z 900, flow rate 5 µL min-1. For ubiquitin containing samples, the scan range was adapted to m/z 300– 2200 with a target mass of m/z 1100. Data

Structure (SMILES) | IC50 [1] [nM] | potency compared to morpholine-analogues 1b and 2b [1] [times] | reduction in tumour volume on day 13 (CT26 colon carcinoma; 10 mg kg^−1 i.p. over two weeks, vs vehicle) [%] | tumour inhibition, 1-week experiment (CT26 colon carcinoma; 10 mg kg^−1 i.p., five consecutive days) | tumour growth compared to vehicle-treated controls (CT26 colon carcinoma) | Solubility in PBS [2] [µM] | reaction with nucleophile mixture within 24 h [3] | Intact compound after 24 h, nucleophile mixture [3] [%]
CCC1=C2[O][Ru][O]C2(n2cccn2)c2ccccc2C1=O.Cc1ccc(C(C)C)cc1 (stereo not drawn) [Compound 1a, [(3-ethyl-4-oxo-(pyrazolyl)-dihydronaphthalene)(cymene)ruthenium(II)]] | 620 ± 40 | > 30 | 44 | statistically significant tumour inhibition | significantly inhibit tumour growth | 170 | reacted nearly quantitatively | 4
Cc1ccc(C(C)C)cc1.O=C1C(CN2CCOCC2)=C2[O][Ru][O]C2(n2cccn2)c2ccccc21 (stereo not drawn) [Compound 1b] | 38000 ± 5000 | – | – | – | inactive | 1220 | reacted nearly quantitatively | 7
CCC1=C2[O][Os][O]C2(n2cccn2)c2ccccc2C1=O.Cc1ccc(C(C)C)cc1 (stereo not drawn) [Compound 2a] | 1200 ± 100 | > 30 | – | – | significantly inhibit tumour growth | 210 | – | 19
